Like-named read-outs stand apart in the source and are kept apart here.
Molecular target: human TRPA1 channel (Homo sapiens (Human), UniProt O75762)
Test: hTRPA1 CHO Ca2+ FLIPR Tetra assay: block of cinnamaldehyde induced calcium influx
Type: cell-based
Details: CHO cells expressing TRPA1, Hill coefficient fixed to 1.5
Method: CHO cells expressing TRPA1 were plated into 384-well plates, incubated overnight at 37° C., and loaded with BD calcium indicator dye for 1 hr at 37° C. followed by 15 minutes at room temperature. The assay buffer was Hank's Balanced Salt Solution (HBSS) containing 20 mM HEPES (pH readjusted to 7.4) along with 0.02% BSA.
Following dye load and plate cool down, compounds were added to the cells using FLIPR Tetra. Plates were then incubated with compounds for 10 minutes or 90 minutes at room temperature prior to adding agonist. Following this incubation, about an EC80 concentration of cinnamaldehyde […] was added to active the channels and block of cinnamaldehyde induced calcium influx was measured.
Fixing the Hill coefficient will generally reduce variability of the IC50 determination. The IC50 results were individually examined to make sure the MIN and MAX points were set correctly prior to validation of the results.

[1] = read-out: hTRPA1 IC50 10 min, 10 minutes incubation with compound before cinnamaldehyde (about EC80)
[2] = read-out: hTRPA1 IC50 90 min, 90 minutes incubation with compound before cinnamaldehyde (about EC80)
[3] = hTRPA1 IC50 10 min, 10 minutes incubation with compound before cinnamaldehyde (about EC80)
[4] = hTRPA1 IC50 90 min, 90 minutes incubation with compound before cinnamaldehyde (about EC80)

Chain of human TRPA1 channel (O75762 whole entry): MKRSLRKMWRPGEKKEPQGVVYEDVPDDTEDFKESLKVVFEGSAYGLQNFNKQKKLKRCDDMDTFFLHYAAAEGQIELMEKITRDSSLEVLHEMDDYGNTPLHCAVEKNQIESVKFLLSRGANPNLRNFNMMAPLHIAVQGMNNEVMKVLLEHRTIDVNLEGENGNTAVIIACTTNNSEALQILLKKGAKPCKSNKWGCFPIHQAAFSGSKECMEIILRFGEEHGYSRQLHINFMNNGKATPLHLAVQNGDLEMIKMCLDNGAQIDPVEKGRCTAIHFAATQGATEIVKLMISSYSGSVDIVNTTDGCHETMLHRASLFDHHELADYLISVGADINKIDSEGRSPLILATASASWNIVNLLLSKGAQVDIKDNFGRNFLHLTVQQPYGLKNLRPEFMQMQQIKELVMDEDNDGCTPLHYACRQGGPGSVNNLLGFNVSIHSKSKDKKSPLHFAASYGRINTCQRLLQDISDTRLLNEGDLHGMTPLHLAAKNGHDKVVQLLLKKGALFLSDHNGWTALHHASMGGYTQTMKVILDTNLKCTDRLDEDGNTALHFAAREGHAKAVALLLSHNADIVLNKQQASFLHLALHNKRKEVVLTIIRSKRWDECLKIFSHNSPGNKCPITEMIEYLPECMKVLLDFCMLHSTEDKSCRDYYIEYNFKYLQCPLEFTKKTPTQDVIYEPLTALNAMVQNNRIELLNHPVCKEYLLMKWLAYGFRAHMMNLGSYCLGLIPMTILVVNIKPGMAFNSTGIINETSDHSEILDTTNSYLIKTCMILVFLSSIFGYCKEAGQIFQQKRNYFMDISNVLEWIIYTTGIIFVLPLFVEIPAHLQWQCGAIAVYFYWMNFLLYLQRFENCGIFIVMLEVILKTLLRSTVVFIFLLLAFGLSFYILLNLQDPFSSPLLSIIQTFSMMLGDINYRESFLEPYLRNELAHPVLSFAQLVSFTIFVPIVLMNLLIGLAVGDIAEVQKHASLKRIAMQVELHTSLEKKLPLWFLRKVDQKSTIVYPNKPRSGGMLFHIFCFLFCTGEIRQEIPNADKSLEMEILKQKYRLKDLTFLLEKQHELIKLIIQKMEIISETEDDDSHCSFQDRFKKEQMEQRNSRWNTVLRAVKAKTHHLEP

Row | Compound | IC50 [1] | IC50 [2] | IC50 [3] | IC50 [4]
1 | Cc1ncn2ncn(Cc3nc([C@@H]4CO[C@@H](c5ccc(F)cc5)C4)no3)c(=O)c12 [Example 75, 3-((3-((3R,5R)-5-(4-fluorophenyl)tetrahydro-furan-3-yl)-1,2,4-oxadiazol-5-yl)methyl)-5-methylimidazo[5,1-f][1,2,4]triazin-4(3H)-one] |  | 25 nM |  | 
2 | Cc1nc2ncn(C)c2c(=O)n1Cc1nc([C@@H]2CO[C@@H](c3ccc(Cl)cc3)C2)no1 [Example 8, 1-((3-((3R,5R)-5-(4-chlorophenyl)tetrahydrofuran-3-yl)-1,2,4-oxadiazol-5-yl)methyl)-2,7-dimethyl-1H-purin-6(7H)-one] |  | 4.1 nM | 9.38 nM | 
3 | Nc1nccc2c(=O)n(Cc3nc([C@@H]4CO[C@@H](c5ccc(Cl)cc5)C4)no3)cnc12 (racemic) [Example 108, 8-amino-3-[[3-[rac-(3R,5R)-5-(4-chlorophenyl)tetrahydro-furan-3-yl]-1,2,4-oxadiazol-5-yl]methyl]pyrido[3,4-d] pyrimidin-4-one] |  |  | 76.9 nM | 57 nM
4 | Cn1cnc2nc(N)n(Cc3nc([C@@H]4CO[C@@H](c5ccc(F)cc5)C4)no3)c2c1=O (racemic) [Example 157, 8-amino-1-methyl-7-[[3-[rac-(3R,5R)-5-(4-fluorophenyl)tetrahydro-furan-3-yl]-1,2,4-oxadiazol-5-yl]methyl]purin-6-one] |  |  | 470 nM | 87 nM
5 | Cn1c(=O)c2c(ncn2Cc2nc([C@@H]3CO[C@@H](c4ccc(Cl)cc4)C3)no2)n(C)c1=O [Example 50, 7-((3-((3R,5R)-5-(4-chlorophenyl)tetrahydro-furan-3-yl)-1,2,4-oxadiazol-5-yl)methyl)-1,3-dimethyl-3,7-dihydro-1H-purine-2,6-dione] | 50.8 nM | 57 nM |  | 
6 | Cn1cnc2ncn(Cc3nc([C@@H]4CO[C@@H](c5ccc(OC(F)F)cc5)C4)no3)c(=O)c21 [Example 19, 1-((3-((3R,5R)-5-(4-(difluoromethoxy)phenyl)tetrahydrofuran-3-yl)-1,2,4-oxadiazol-5-yl)methyl)-7-methyl-1,7-dihydro-6H-purin-6-one] | 150 nM | 110 nM |  | 
7 | Cn1cnc2ncn(Cc3nc([C@@H]4CO[C@@H](c5cccc(F)c5)C4)no3)c(=O)c21 [Example 10, 1-((3-((3R,5R)-5-(3-fluorophenyl)tetra-hydrofuran-3-yl)-1,2,4-oxadiazol-5-yl)methyl)-7-methyl-1,7-dihydro-6H-purin-6-one] | 27.4 nM | 17 nM |  | 
8 | Cn1cnc2ncn(Cc3nc([C@@H]4CO[C@@H](c5ccc(C6CC6)cc5)C4)no3)c(=O)c21 [Example 68, 1-((3-((3R,5R)-5-(4-cyclopropylphenyl)tetrahydrofuran-3-yl)-1,2,4-oxadiazol-5-yl)methyl)-7-methyl-1,7-dihydro-6H-purin-6-one] | 46 nM | 27 nM |  | 
9 | Cn1cnc2ncn(Cc3nc([C@@H]4CO[C@@H](c5ccc(C(F)(F)F)cc5)C4)no3)c(=O)c21 [Example 38, 7-methyl-1-((3-((3R,5R)-5-(4-(trifluoromethyl)phenyl)tetrahydrofuran-3-yl)-1,2,4-oxadiazol-5-yl)methyl)-1,7-dihydro-6H-purin-6-one] | 46.4 nM | 29 nM |  | 
10 | Cn1cnc2ncn(Cc3nc([C@@H]4CO[C@@H](c5ccc(F)c(F)c5)C4)no3)c(=O)c21 [Example 18, 1-((3-((3R,5R)-5-(3,4-difluorophenyl)tetra-hydrofuran-3-yl)-1,2,4-oxadiazol-5-yl)methyl)-7-methyl-1,7-dihydro-6H-purin-6-one] | 173 nM | 130 nM |  | 
11 | Cn1cnc2ncn(Cc3nc([C@@H]4CO[C@@H](c5cccc(Cl)c5)C4)no3)c(=O)c21 [Example 17, 1-((3-((3R,5R)-5-(3-chlorophenyl)tetrahydro-furan-3-yl)-1,2,4-oxadiazol-5-yl)methyl)-7-methyl-1,7-dihydro-6H-purin-6-one] | 29.5 nM | 14 nM |  | 
12 | Cn1nnc2ccn(Cc3nc([C@@H]4CO[C@@H](c5ccc(F)cc5)C4)no3)c(=O)c21 (racemic) [Example 106, 3-methyl-5-[[3-[rac-(3R,5R)-5-(4-fluorophenyl)tetrahydro-furan-3-yl]-1,2,4-oxadiazol-5-yl]methyl] triazolo[4,5-c]pyridin-4-one] |  |  | 6.9 nM | 5.6 nM

Other lines, results leading:

Row | IC50 [1] | IC50 [2] | IC50 [3] | IC50 [4] | Compound
13 | 18.4 nM | 1.5 nM |  |  | Cn1cnc2nc(N)n(Cc3nc([C@@H]4CO[C@@H](c5ccc(Cl)cc5)C4)no3)c(=O)c21 [Example 71, 2-amino-1-((3-((3R,5R)-5-(4-chlorophenyl)tetrahydrofuran-3-yl)-1,2,4-oxadiazol-5-yl)methyl)-7-methyl-1,7-dihydro-6H-purin-6-one]
14 | 6.32 nM | 3.9 nM |  |  | Nc1ccc2c(=O)n(Cc3nc([C@@H]4CO[C@@H](c5ccc(Cl)cc5)C4)no3)cnc2n1 [Example 28, 7-amino-3-((3-((3R,5R)-5-(4-chlorophenyl)tetrahydro-furan-3-yl)-1,2,4-oxadiazol-5-yl)methyl)pyrido[2,3-d]pyrimidin-4(3H)-one]
15 | 7.2 nM | 6.7 nM |  |  | Cc1ccnc2cnn(Cc3nc([C@@H]4CO[C@@H](c5ccc(F)cc5)C4)no3)c(=O)c12 [Example 104, 6-[[3-[(3R,5R)-5-(4-fluorophenyl)tetrahydro-furan-3-yl]-1,2,4-oxadiazol-5-yl]methyl]-4-methyl-pyrido[2,3-d] pyridazin-5-one]
16 | 4.09 nM | 2.4 nM |  |  | Cn1cnc2ncn(Cc3nc([C@@H]4CO[C@@H](c5ccc6ccccc6c5)C4)no3)c(=O)c21 [Example 33, 7-methyl-1-((3-((3R,5R)-5-(naphthalen-2-yl)tetrahydrofuran-3-yl)-1,2,4-oxadiazol-5-yl)methyl)-1,7-dihydro-6H-purin-6-one]
17 | 4.48 nM | 2.1 nM |  |  | Nc1nn2c(C(F)(F)F)ncc2c(=O)n1Cc1nc([C@@H]2CO[C@@H](c3ccc(Cl)cc3)C2)no1 [Example 149, 2-amino-3-((3-((3R,5R)-5-(4-chlorophenyl)tetrahydro-furan-3-yl)-1,2,4-oxadiazol-5-yl)methyl)-7-(trifluoromethyl)imidazo [5,1-f][1,2,4]triazin-4(3H)-one]
18 | 7.05 nM | 3.6 nM |  |  | Cc1ccnc2ncn(Cc3nc([C@@H]4CO[C@@H](c5ccc(F)cc5)C4)no3)c(=O)c12 [Example 20, 3-((3-((3R,5R)-5-(4-fluorophenyl)tetrahydro-furan-3-yl)-1,2,4-oxadiazol-5-yl)methyl)-5-methylpyrido[2,3-d]pyrimidin-4(3H)-one]
19 | 19.3 nM | 7.8 nM |  |  | O=c1c2ccncc2ncn1Cc1nc([C@@H]2CO[C@@H](c3ccc(Cl)cc3)C2)no1 [Example 45, 3-((3-((3R,5R)-5-(4-chlorophenyl)tetrahydro-furan-3-yl)-1,2,4-oxadiazol-5-yl)methyl)pyrido[3,4-d] pyrimidin-4(3H)-one]
20 | 7.55 nM | 3.4 nM |  |  | Cn1nnc2ncn(Cc3nc([C@@H]4CO[C@@H](c5ccc(F)cc5)C4)no3)c(=O)c21 [Example 12, 6-((3-((3R,5R)-5-(4-fluorophenyl)tetra-hydrofuran-3-yl)-1,2,4-oxadiazol-5-yl)methyl)-1-methyl-1,6-dihydro-7H-[1,2,3]triazolo[4,5-d]pyrimidin-7-one]
